These results are taken from US12202835B2, “Substituted aromatic ring-linked dioxinoquinazolines and dioxinoquinolines as kinase inhibitors” (BEIJING SCITECH-MQ PHARMACEUTICALS LIMITED, priority 2018, dated 2025).

Assay [1] has as its target VEGFR-2 kinase (Homo sapiens (Human), UniProt P35968). The experiment in a line: Assay of small molecular compounds for inhibiting the activity of VEGFR-2 kinase (LANCE TR-FRET). It counts as biochemical. The following applies: read-out: VEGFR2 IC50. The method, boiled down:
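LANCE TR-FRET with human VEGFR-2 (2× stock 0.5 nM) preincubated 30 min with compound (final 2500 to 0.042 nM, 11-point 3-fold), then ULight-JAK-1 (Tyr1023) peptide/ATP added (4× stocks 200 nM/40 μM). Reaction 60 min room temperature, 4% DMSO; IC50 from inhibition-rate curve.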
(In general: In TR-FRET formats the signal depends on donor and acceptor labels being close together.)

Assay [2] has as its system Ba/F3 LMNA-NTRK1 cells. The experiment in a line: Assay for inhibiting the proliferation of Ba/F3 LMNA-NTRK1 cells (CCK-8). In kind it is cell-based. The following applies: Mus musculus, BaF3. The method, boiled down: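 Viability was read as absorbance at 450 nm following 1–2 h CCK-8 incubation at 37 °C, relative to control and blank wells.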
Assay [3] deals with c-MET kinase (Homo sapiens (Human), UniProt P08581). Briefly: Assay of small molecular compounds for inhibiting the activity of c-MET kinase (LANCE TR-FRET). In kind it is biochemical. Conditions: read-out: CMET IC50. The method, boiled down: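 Eleven final concentrations from 2500 nM down to 0.042 nM, in 4% DMSO, were tested against human c-MET (2× stock 2 nM), with compound and enzyme premixed for 5 min. The phosphorylation reaction used 4× stock of 400 nM ULight-JAK-1 peptide and 40 μM ATP for 60 min at room temperature, then stop and detection steps. TR-FRET percent inhibition against positive and negative controls gave the IC50.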
Sequence of c-MET kinase (P08581 25-1390): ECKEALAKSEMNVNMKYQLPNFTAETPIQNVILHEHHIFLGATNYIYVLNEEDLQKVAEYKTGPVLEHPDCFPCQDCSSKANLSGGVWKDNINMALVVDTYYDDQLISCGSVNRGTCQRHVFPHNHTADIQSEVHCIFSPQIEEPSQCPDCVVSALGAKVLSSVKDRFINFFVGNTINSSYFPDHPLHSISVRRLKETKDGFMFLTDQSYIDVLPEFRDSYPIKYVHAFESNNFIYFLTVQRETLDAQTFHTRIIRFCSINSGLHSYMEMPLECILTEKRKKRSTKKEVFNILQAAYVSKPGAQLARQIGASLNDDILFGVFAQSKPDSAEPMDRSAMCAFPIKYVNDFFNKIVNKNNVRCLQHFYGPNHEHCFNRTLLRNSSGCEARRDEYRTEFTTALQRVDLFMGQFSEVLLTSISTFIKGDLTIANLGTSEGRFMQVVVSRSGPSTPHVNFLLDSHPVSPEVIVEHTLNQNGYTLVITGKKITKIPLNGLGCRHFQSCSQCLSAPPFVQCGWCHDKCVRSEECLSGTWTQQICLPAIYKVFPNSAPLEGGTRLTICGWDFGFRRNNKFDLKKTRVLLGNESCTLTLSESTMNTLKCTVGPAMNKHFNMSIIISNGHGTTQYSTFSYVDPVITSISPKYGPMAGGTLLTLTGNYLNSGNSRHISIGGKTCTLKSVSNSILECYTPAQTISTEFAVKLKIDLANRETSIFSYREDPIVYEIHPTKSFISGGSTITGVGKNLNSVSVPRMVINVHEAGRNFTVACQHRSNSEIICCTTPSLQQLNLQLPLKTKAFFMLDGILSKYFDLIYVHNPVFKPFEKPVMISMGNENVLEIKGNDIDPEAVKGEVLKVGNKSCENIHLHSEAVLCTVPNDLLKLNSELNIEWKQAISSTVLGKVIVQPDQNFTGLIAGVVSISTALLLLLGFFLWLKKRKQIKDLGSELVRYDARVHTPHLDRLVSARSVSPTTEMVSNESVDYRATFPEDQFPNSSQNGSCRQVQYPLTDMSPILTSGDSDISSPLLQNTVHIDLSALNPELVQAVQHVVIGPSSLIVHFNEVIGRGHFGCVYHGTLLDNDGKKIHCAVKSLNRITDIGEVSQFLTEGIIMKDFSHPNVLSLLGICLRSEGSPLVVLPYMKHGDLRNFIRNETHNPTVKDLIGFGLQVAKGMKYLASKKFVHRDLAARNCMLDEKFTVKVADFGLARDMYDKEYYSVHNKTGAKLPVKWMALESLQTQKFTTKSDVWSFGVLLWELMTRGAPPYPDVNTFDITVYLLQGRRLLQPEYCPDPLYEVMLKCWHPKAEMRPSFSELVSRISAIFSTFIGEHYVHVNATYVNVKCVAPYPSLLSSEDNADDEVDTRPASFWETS

Sequence of VEGFR-2 kinase (P35968 20-1356): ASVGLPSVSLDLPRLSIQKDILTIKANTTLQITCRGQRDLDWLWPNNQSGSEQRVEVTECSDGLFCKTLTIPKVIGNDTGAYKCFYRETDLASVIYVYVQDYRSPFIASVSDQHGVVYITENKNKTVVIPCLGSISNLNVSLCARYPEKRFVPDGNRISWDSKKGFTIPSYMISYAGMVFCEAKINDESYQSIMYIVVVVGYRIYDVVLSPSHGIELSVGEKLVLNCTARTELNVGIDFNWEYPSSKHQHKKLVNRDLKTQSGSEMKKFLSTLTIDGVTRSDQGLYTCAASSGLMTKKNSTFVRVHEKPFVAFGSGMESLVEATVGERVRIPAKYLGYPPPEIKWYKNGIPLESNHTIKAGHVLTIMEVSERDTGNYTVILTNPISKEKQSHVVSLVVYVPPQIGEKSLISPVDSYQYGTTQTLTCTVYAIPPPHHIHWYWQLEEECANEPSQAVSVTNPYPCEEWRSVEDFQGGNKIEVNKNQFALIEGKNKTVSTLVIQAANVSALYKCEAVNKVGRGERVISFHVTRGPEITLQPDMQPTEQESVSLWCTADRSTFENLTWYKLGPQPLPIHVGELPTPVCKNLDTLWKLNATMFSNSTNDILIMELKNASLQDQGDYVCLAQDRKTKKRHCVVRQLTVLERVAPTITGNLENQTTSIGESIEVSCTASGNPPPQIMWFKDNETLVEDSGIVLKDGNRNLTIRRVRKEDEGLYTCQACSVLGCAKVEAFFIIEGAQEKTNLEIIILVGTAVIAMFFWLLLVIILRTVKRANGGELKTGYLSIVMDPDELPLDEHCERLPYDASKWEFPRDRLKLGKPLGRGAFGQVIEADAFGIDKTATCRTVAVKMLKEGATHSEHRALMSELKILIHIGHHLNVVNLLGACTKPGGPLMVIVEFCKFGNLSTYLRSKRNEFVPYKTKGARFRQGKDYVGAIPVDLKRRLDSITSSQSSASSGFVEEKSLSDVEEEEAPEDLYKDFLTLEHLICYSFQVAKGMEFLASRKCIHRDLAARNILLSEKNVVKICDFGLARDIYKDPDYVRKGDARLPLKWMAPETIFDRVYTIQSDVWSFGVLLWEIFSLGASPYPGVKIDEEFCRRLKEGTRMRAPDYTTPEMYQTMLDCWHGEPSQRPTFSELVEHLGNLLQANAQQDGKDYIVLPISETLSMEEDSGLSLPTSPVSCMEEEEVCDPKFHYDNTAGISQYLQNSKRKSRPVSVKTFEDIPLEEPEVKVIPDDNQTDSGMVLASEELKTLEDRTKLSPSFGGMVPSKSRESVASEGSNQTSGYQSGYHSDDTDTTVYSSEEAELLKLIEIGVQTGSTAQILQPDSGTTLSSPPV

Take `CCOc1ccn(-c2ccc(F)cc2)c(=O)c1C(=O)Nc1ccc(Oc2ccnc3cc(OCCCN4CCN(C)CC4)c4c(c23)OCCO4)c(F)c1` [Example 49, N-(3-fluoro-4-((5-(3-(4-methylpiperazin-1-yl)propoxy)-2,3-dihydro-[1,4]dioxino[2,3-f]quinolin-10-yl)oxy)phenyl)-1-(4-fluorophenyl)-4-ethoxy-2-oxo-1,2-dihydropyridine-3-carboxamide]: the values for the IC50 in assay [1], in assay [2] and in assay [3] were at most 50 nM, below 50 nM and at most 50 nM, respectively.
As for `CCOc1ccn(-c2ccc(F)cc2)c(=O)c1C(=O)Nc1ccc(Oc2ccnc3cc(OCCCN4CCN(C(C)=O)CC4)c4c(c23)OCCO4)c(F)c1` [Example 50, N-(4-((5-(3-(4-acetyl-piperazin-1-yl)propoxy)-2,3-dihydro-[1,4]dioxino[2,3-f]quinolin-10-yl)oxy)-3-fluorophenyl)-4-ethoxy-1-(4-fluorophenyl)-2-oxo-1,2-dihydropyridine-3-carboxamide], the concentration for half-maximal inhibition (IC50) in assay [1] was at most 50 nM; in assay [2] it was below 50 nM; in assay [3], at most 50 nM.
For the molecule `CCOc1ccn(-c2ccc(F)cc2)c(=O)c1C(=O)Nc1ccc(Oc2ccnc3cc(OCCCN4CCS(=O)(=O)CC4)c4c(c23)OCCO4)c(F)c1` [Example 51, N-(4-((5-(3-(1,1-dioxidothiomorpholino)propoxy)-2,3-dihydro-[1,4]dioxino[2,3-f]quinolin-1 0-yl)oxy)-3-fluorophenyl)-4-ethoxy-1-(4-fluorophenyl)-2-oxo-1,2-dihydropyridine-3-carboxamide], the values for the IC50 in assay [1], in assay [2] and in assay [3] were at most 50 nM, below 50 nM and at most 50 nM, respectively.
In the case of `CCOc1ccn(-c2ccc(F)cc2)c(=O)c1C(=O)Nc1ccc(Oc2ccnc3cc(OCCCN4CCCC4)c4c(c23)OCCO4)c(F)c1` [Example 52, N-(4-((5-(3-(pyrrolidin-1-yl)propoxy)-2,3-dihydro-[1,4]dioxino[2,3-f]quinolin-10-yl)oxy)-3-fluorophenyl)-4-ethoxy-1-(4-fluorophenyl)-2-oxo-1,2-dihydropyridine-3-carboxamide], the 50% inhibitory concentration (IC50) was at most 50 nM in assay [1], below 50 nM in assay [2] and at most 50 nM in assay [3].
For `CCOc1ccn(-c2ccc(F)cc2)c(=O)c1C(=O)Nc1ccc(Oc2ccnc3cc(OCCO)c4c(c23)OCCO4)c(F)c1` [Example 53, N-(4-((5-(2-hydroxyethoxy)-2,3-dihydro-[1,4]dioxino[2,3-f]quinolin-10-yl)oxy)-3-fluorophenyl)-4-ethoxy-1-(4-fluorophenyl)-2-oxo-1,2-dihydropyridine-3-carboxamide], the values for the 50% inhibitory concentration (IC50) in assay [1], in assay [2] and in assay [3] were at most 50 nM, below 50 nM and at most 50 nM, respectively.
On to `CCOc1ccn(-c2ccc(F)cc2)c(=O)c1C(=O)Nc1ccc(Oc2ccnc3cc(OCCCO)c4c(c23)OCCO4)c(F)c1` [Example 54, N-(4-((5-(3-hydroxypropoxy)-2,3-dihydro-[1,4]dioxino[2,3-f]quinolin-10-yl)oxy)-3-fluorophenyl)-4-ethoxy-1-(4-fluorophenyl)-2-oxo-1,2-dihydropyridine-3-carboxamide], for which the IC50 in assay [1] is at most 50 nM; in assay [2], below 50 nM; in assay [3], at most 50 nM.
Turning to `CCOc1ccn(-c2ccc(F)cc2)c(=O)c1C(=O)Nc1ccc(Oc2ccnc3cc(OCCCOC)c4c(c23)OCCO4)c(F)c1` [Example 55, N-(4-((5-(3-methoxypropoxy)-2,3-dihydro-[1,4]dioxino[2,3-f]quinolin-10-yl)oxy)-3-fluorophenyl)-4-ethoxy-1-(4-fluorophenyl)-2-oxo-1,2-dihydropyridine-3-carboxamide], the figures for the IC50 in assay [1], in assay [2] and in assay [3] were 50 to 500 nM, below 50 nM and at most 50 nM, respectively.
As for `CCOc1ccn(-c2ccc(F)cc2)c(=O)c1C(=O)Nc1ccc(Oc2ccnc3cc(OCC#N)c4c(c23)OCCO4)c(F)c1` [Example 56, N-(4-((5-(cyanomethoxy)-2,3-dihydro-[1,4]dioxino[2,3-f]quinolin-10-yl)oxy)-3-fluorophenyl)-4-ethoxy-1-(4-fluorophenyl)-2-oxo-1,2-dihydropyridine-3-carboxamide], the 50% inhibitory concentration (IC50) was 50 to 500 nM in assay [1], below 50 nM in assay [2] and at most 50 nM in assay [3].
Turning to `CCOc1ccn(-c2ccc(F)cc2)c(=O)c1C(=O)Nc1ccc(Oc2ccnc3cc(OCCCC#N)c4c(c23)OCCO4)c(F)c1` [Example 57, N-(4-((5-(3-cyanopropoxy)-2,3-dihydro-[1,4]dioxino[2,3-f]quinolin-10-yl)oxy)-3-fluorophenyl)-4-ethoxy-1-(4-fluorophenyl)-2-oxo-1,2-dihydropyridine-3-carboxamide], the IC50 in assay [1] was at most 50 nM; in assay [2] it was below 50 nM; in assay [3], at most 50 nM.
For the molecule `CCOc1cc2nccc(Oc3ccc(NC(=O)c4c(OCC)ccn(-c5ccc(F)cc5)c4=O)cc3F)c2c2c1OCCO2` [Example 62, N-(4-((5-ethoxy-2,3-dihydro-[1,4]dioxino[2,3-f]quinolin-10-yl)oxy)-3-fluorophenyl)-4-ethoxy-1-(4-fluorophenyl)-2-oxo-1,2-dihydropyridine-3-carboxamide], the half-inhibitory concentration (IC50) in assay [1] is at most 50 nM; in assay [2], below 50 nM; in assay [3], at most 50 nM.
Regarding `CCOc1ccn(-c2ccc(F)cc2)c(=O)c1C(=O)Nc1ccc(Oc2ccnc3cc(OC4COC4)c4c(c23)OCCO4)c(F)c1` [Example 64, N-(4-((5-((oxetan-3-yl)oxy)-2,3-dihydro-[1,4]dioxino[2,3-f]quinolin-10-yl)oxy)-3-fluorophenyl)-4-ethoxy-1-(4-fluorophenyl)-2-oxo-1,2-dihydropyridine-3-carboxamide], the half-inhibitory concentration (IC50) was 50 to 500 nM in assay [1], 50 to 200 nM in assay [2] and at most 50 nM in assay [3].
In the same order, the values of `CCOc1ccn(-c2ccc(F)cc2)c(=O)c1C(=O)Nc1ccc(Oc2ccnc3cc(OC4CCOC4)c4c(c23)OCCO4)c(F)c1` (stereo not drawn) [Example 65, N-(4-((5-((tetrahydrofuran-3-yl)oxy)-2,3-dihydro-[1,4]dioxino[2,3-f]quinolin-10-yl)oxy)-3-fluorophenyl)-4-ethoxy-1-(4-fluorophenyl)-2-oxo-1,2-dihydropyridine-3-carboxamide] are 50 to 500 nM, 50 to 200 nM and at most 50 nM.
In the same order, the values of `CCOc1ccn(-c2ccc(F)cc2)c(=O)c1C(=O)Nc1ccc(Oc2ccnc3cc(OC4CCOCC4)c4c(c23)OCCO4)c(F)c1` [Example 66, N-(4-((5-((tetrahydropyran-4-yl)oxy)-2,3-dihydro-[1,4]dioxino[2,3-f]quinolin-10-yl)oxy)-3-fluorophenyl)-4-ethoxy-1-(4-fluorophenyl)-2-oxo-1,2-dihydropyridine-3-carboxamide] are 50 to 500 nM, 50 to 200 nM and at most 50 nM.
Take `CCOc1ccn(-c2ccc(F)cc2)c(=O)c1C(=O)Nc1ccc(Oc2ccnc3cc(OCCCN4CCC(C)(C)CC4)c4c(c23)OCCO4)c(F)c1` [Example 67, N-(4-((5-(3-(4,4-dimethylpiperidin-1-yl)propoxy)-2,3-dihydro-[1,4]dioxino[2,3-f]quinolin-10-yl)oxy)-3-fluorophenyl)-4-ethoxy-1-(4-fluorophenyl)-2-oxo-1,2-dihydropyridine-3-carboxamide]: the half-inhibitory concentration (IC50) was at most 50 nM in assay [1], below 50 nM in assay [2] and at most 50 nM in assay [3].

The term IC50 denotes the midpoint of a concentration-inhibition curve.
